Patent publication US9623049B2, “Immunotherapy using redirected allogeneic cells” (YEDA RESEARCH AND DEVELOPMENT CO. LTD., priority 2010, dated 2017)

Columns and labels:
[1] = FACS analysis of blood and spleen lymphocytes after transfer of allogeneic T-bodies with or without FTY720; assay type: in vivo, Balb/c mice
Method: Prior to splenocyte staining, RBC were lysed using ACK buffer. Lymphocytes (1×10^6) were incubated with the appropriate antibodies in staining buffer (5% BSA, 0.05% sodium azide in phosphate-buffered saline (PBS)) for 30 minutes on ice. Alternatively, Annexin V staining buffer was used as indicated. CFSE (Carboxyfluorescein succinimidyl ester) labeling was performed according to the manufacturer's instructions (Molecular Probes. Eugene, Oreg.). Cells were analyzed by flow cytometry (LSRII, Becton Dickinson. Mountain View. Calif.) and FacsDiva software (Becton Dickinson).
This enhanced persistence of allogeneic T-bodies can explain the increased survival of tumor bearing mice treated with allogeneic T-bodies and FTY720.

Renca-Her2/neu tumor = test: Survival of Renca-Her2/neu tumor bearing mice after irradiation and T-body transfer (Example 10); assay type: in vivo, Balb/c mice
Method: Adoptive transfer experiments. Mice were injected with […] Renca-Her2/neu cells iv on day 1. All mice (including the control group) were irradiated on day 7 with 200 or 400 rads (137Cs source). Prior to transfer, all T cells were activated with Con-A 1 μg/ml for 48 hours, and then cultured for 3-5 more days with 350 u/ml IL-2. Either 30×10^6 or 108 T cells were transferred in a split dose on days 8 and 10. In some experiments, FTY720 was injected ip (0.3 mg/kg) on days 8-18. Donor cells were either from wildtype mice (Balb/c or C57BL/6) or from N29 CAR transgenic mice (Balb/c or C57BL/6 backgrounds). In some cases, T-bodies from wild type mice (Balb/c or C57Bl) were transduced with the CAR.
To investigate the potential of allogeneic adoptive cell therapy, the BALB/c derived mouse renal cell carcinoma (Renca) cell line expressing the human Her2/neu was used. Following intravenous inoculation of the tumor, experimental metastases mainly developed in the lungs, yet, as was reported in similar systems (ref. 62, 63) extra-pulmonary metastases also developed. […] Adoptive transfer of T cells redirected with a Her2/neu-specific chimeric antigen receptor (‘T-bodies’) was performed on days 8 and 10 (FIG. 21). The CAR is composed of a scFv fragment derived from the Her2/Neu-specific N29 antibody fused to a CD28 co-activation moiety and FcRγ signaling sequences (ref. 8). […] T-bodies were obtained from transgenic (Tg) mice of BALB/c (Balb-N29) or C57BL/6 (Black-N29) background, or by the transduction of wild type T cells with a retrovector harboring the Her2/neu-specific CAR. Transduced T cells were activated as part of their transduction, while naïve transgenic (Tg) T cells were also activated to facilitate comparison with transduced T cells.

[2] = test system: Renca-erbb2 pulmonary metastases
Method: After determining safe regimens for adoptive transfer, the inventors tested the efficacy of tumor rejection by CR redirected T cells. The inventors used the Renca-erbb2, renal cancer cell line, stably transfected with erbB2 (HER2) which was injected intravenously into Balb/c mice to generate experimental pulmonary metastases. As effectors, the inventors used splenocytes from transgenic mice expressing a HER2 specific chimeric receptor (based on the N29 antibody derived scFv, FIGS. 7A-B) under the CD2 promoter (which is expressed in T and NK cells [8]). The HER2-specific transgenic mice were kept on two backgrounds: C57Bl and Balb/c (named C57Bl-N29 and Balb-N29 respectively). Wild type Balb/c mice were injected with the Renca-erbb2 on day 1, irradiated on day 7, and HER2 specific T-bodies were injected on day 8 (and also on day 10 and 12 in some cases).
The inventors therefore compared the efficacy of allogeneic (C57Bl-N29) to syngeneic (Balb-N29) T-bodies, and to ensure that allogeneic cells mediate a specific antitumor response (and not just an allogeneic response), they also tested the effect of activated wild type C57Bl cells. Previous experiments in the inventors' lab have established that the minimal regimen which provides significant therapeutic benefit (boosting median survival to 90 days) using syngeneic Balb-N29 is irradiation with 200 rad and transfer of 3 doses of 10 million cells each (abbreviated as 200/30 regimen) complemented with low dose IL-2 (1000 u) twice daily. The purpose was to test if one can provide therapeutic benefit in this model using allogeneic C57Bl-N29 cells. The inventors used the initial regimen as a starting point with one important difference: instead of using naïve transgenic cells, the cells were pre-activated before transfer for 48 hours with concanavalin A. The reason for the change was to simulate a more clinically relevant situation in which lymphocytes will need to be activated in order to facilitate retroviral transduction with the chimeric receptor.

S1P1 = S1P1 (Homo sapiens, UniProt P21453); settings: high affinity for S1P1; cited from earlier work
Sequence of S1P1 (P21453 whole entry): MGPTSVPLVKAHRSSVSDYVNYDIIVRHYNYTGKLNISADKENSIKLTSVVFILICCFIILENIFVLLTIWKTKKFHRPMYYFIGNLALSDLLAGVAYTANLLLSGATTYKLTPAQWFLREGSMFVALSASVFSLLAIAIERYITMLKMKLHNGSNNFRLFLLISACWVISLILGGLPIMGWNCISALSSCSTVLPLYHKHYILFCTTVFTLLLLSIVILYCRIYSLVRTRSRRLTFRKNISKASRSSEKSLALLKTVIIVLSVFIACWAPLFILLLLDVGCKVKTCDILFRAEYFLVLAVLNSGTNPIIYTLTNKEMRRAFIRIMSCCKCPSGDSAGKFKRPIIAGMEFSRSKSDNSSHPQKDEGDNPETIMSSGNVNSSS

S1P3 [3] = target: T1, S1P3 (Homo sapiens, UniProt Q99500); settings: read-out: ED50 (the source's name); cited from earlier work
T1 sequence (Q99500 whole entry, species assumed): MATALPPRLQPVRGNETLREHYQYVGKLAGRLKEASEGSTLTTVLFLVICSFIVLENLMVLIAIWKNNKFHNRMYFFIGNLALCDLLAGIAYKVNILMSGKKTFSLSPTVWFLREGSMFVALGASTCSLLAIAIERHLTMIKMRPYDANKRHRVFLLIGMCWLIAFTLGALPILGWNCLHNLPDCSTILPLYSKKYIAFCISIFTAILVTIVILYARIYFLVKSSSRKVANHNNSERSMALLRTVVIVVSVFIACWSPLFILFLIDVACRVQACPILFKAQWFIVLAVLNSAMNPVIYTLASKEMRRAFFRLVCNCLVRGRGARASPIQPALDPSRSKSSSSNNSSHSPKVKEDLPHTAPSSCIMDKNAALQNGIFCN

[4] = in vivo; cited from earlier work
S1P3 [5] = target: T1, S1P3; settings: at concentrations up to 10 μM; cited from earlier work
S1P2 = S1P2 (Homo sapiens, UniProt O95136); settings: at concentrations up to 10 μM; cited from earlier work
Sequence of S1P2 (O95136 whole entry, species assumed): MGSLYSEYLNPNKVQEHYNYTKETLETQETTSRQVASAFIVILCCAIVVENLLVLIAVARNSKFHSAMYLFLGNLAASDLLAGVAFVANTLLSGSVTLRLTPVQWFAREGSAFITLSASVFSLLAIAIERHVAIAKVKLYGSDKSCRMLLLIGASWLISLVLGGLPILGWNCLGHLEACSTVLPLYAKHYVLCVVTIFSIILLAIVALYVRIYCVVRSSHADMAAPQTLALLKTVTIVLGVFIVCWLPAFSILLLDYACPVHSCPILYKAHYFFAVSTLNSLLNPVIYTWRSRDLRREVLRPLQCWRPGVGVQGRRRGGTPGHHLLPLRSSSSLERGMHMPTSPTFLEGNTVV

S1P4 = target: T2, S1P4 (Homo sapiens, UniProt O95977); settings: at concentrations up to 10 μM; cited from earlier work
T2 sequence (O95977 1-384): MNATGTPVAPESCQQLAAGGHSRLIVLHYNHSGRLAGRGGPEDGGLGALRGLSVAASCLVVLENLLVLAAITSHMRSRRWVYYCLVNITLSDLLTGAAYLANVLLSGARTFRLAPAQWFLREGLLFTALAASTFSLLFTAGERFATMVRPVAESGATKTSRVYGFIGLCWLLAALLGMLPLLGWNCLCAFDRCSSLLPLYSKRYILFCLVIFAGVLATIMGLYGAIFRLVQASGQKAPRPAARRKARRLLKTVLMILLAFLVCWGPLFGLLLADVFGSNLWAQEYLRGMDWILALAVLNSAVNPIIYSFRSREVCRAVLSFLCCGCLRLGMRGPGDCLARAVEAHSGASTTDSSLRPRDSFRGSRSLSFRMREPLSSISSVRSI

S1P5 receptors = S1P5 receptors (Homo sapiens, UniProt Q9H228); settings: at concentrations up to 10 μM; cited from earlier work
Sequence of S1P5 receptors (Q9H228 whole entry): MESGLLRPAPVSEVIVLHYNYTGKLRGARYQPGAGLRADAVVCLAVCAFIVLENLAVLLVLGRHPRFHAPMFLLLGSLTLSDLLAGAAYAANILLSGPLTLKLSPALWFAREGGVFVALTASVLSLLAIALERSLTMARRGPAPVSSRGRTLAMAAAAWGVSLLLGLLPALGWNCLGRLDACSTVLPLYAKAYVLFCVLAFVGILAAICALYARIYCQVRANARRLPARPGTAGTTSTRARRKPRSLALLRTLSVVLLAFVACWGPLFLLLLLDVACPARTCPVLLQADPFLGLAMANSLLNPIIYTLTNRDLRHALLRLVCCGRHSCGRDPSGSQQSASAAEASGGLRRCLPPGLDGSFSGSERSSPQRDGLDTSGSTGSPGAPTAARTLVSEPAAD

[6] = 400 rads and 10^8 allo-T-bodies with FTY720

**Q.** Which “lymphocyte egression to the blood” value ([1]; 4 days after transfer of allogeneic T-bodies, CD3 staining of blood) does the source give for `CCCCCCCCc1ccc(CCC(N)(CO)CO)cc1.Cl` [FTY720, 2-amino-2-[2-(4-octylphenyl)ethyl]propane-1,3-diol] here?
**A.** inhibited lymphocyte egression to the blood

**Q.** And the “allo-T-bodies in the spleen” value ([1]; day 7 after transfer, anti-H2Kb staining, with vs without FTY720)?
**A.** higher numbers of allo-T-bodies detected in the spleen on day 7

**Q.** And the “effect of FTY720 alone on survival of tumor bearing mice” value (Renca-Her2/neu tumor; 0.3 mg/kg i.p for the first 10 days after irradiation, no T-bodies)?
**A.** not to affect the survival of tumor bearing mice

**Q.** And the “long term survival (>350 days)” value (Renca-Her2/neu tumor; [6])?
**A.** most of the remaining mice survived long term

**Q.** What about the “mice died of GvHD” value (Renca-Her2/neu tumor; [6]) of the same compound?
**A.** 16%

**Q.** And the “mice surviving long term (>350 days)” value (Renca-Her2/neu tumor; 400 rads and 30x10^6 allogeneic T-bodies with FTY720 0.3 mg/kg ip 10 days)?
**A.** 58%

**Q.** And the median survival (Renca-Her2/neu tumor; 400 rads and 30x10^6 syngeneic T-bodies with FTY720 0.3 mg/kg ip 10 days)?
**A.** 90 days

**Q.** And the long term survivors ([2]; 200/100 regimen, C57Bl-N29 with FTY720)?
**A.** 80%

**Q.** What about the “surviving after day 250” value ([2]; 400/30 regimen, C57Bl-N29 with FTY720) of the same compound?
**A.** ≥ 50%

**Q.** What about the median survival ([2]; 400/30 regimen, C57Bl-N29 with FTY720 0.3 mg/kg ip daily days 8-18) of the same compound?
**A.** not reached

**Q.** What about the “GVHD mortality (mice died)” value ([2]; 400/30 regimen, activated wild type C57Bl cells with FTY720 0.3 mg/kg ip daily days 8-18) of the same compound?
**A.** 2/6

**Q.** What about the “tumor bearing mice survived long term” value ([2]; temporary FTY720 treatment added to allogeneic cells (FIG. 18)) of the same compound?
**A.** 50-80%

**Q.** With `NC(CO)(CCc1ccc(Sc2cccc(Oc3ccccc3)c2)cc1Cl)COP(=O)(O)O` (stereo not shown) [KRP-203 phosphate, 2-ammonio-4-(2-chloro-4-(3-phenoxyphenylthio)phenyl)-2-(hydroxymethyl)butyl hydrogen phosphate] as the compound, how does the ED50 (S1P1) read?
**A.** in the nM range

**Q.** What about the EC50 (S1P3 [3]) of the same compound?
**A.** > 1 µM

**Q.** What about the “reduction of incidence of bradycardia compared to FTY720” value [4] of the same compound?
**A.** 10 fold

**Q.** For `FC(F)(F)c1cccc(-c2noc(-c3cc(-c4ccccc4)c(C(F)(F)F)s3)n2)c1` [SEW2871, 5-[4-Phenyl-5-(trifluoromethyl)thiophen-2-yl]-3-[3-(trifluoromethyl)phenyl]1,2,4-oxadiazole], which receptor activation (S1P3 [5]) is on record?
**A.** does not activate

**Q.** And the receptor activation (S1P2)?
**A.** does not activate

**Q.** And the receptor activation (S1P4)?
**A.** does not activate

**Q.** And the receptor activation (S1P5 receptors)?
**A.** does not activate
